Data: patent US10882826B2, “Quinolinone or quinazolinone comprising antibiofilm compositions, compounds and methods and uses relating thereto” (University College Cork—National University of Ireland, priority 2015, dated 2021)

Experiments:
[1] = tested on: C. albicans strain SC5314 biofilm; assay: XTT metabolic assay of C. albicans biofilm; type: cell-based, Candida albicans; conditions: for XTT result, Mean (MeOH control = 1) / Absorbance at 492 nm, Mean (XTT): C. albicans biofilm; for Absorbance at 492 nm, Mean (XTT): test compound 100 μM, 24 hr, MeOH control 0.647, untreated 0.851; for effectiveness against fungal biofilms formed by Candida albicans (in words): summary statement
Procedure: C. albicans strain SC5314 was sub-cultured from 15% (v/v) glycerol stocks at −80° C. onto Yeast Peptone Dextrose (YPD) medium [1% (w/v) yeast extract, 2% (w/v) peptone and 2% (w/v) dextrose] and incubated at 30° C. overnight.
The test compounds in desiccated form were re-suspended in Methanol to create a 10 mM stock. […]
The ability of some of the compounds detailed in example 1 to disrupt Candida albicans was tested using Confocal Scanning Laser Microscopy and an XTT Metabolic Assay. The XTT assay is a commonly used quantitative method assessing Candida biofilm mass and growth often in response to novel drug therapies.
C. albicans biofilm formation was carried out in 96 well plates by a method of the prior art. Briefly, C. albicans was inoculated into Yeast Nitrogen Base [10% (w/v)] and glucose/maltose [10% (w/v)] and incubated overnight at 30° C. Seeding densities for all subsequent experiments (N=3) were OD600=0.05. Cells were grown in Yeast Nitrogen Base supplemented with 1 M Phosphate buffer and acetyl-D-glucosamine (YNB-NP) along with appropriate volumes of test compound to provide the desired concentration. Cells were cultured in 96 well plates for 1 hr at 37° C. to facilitate yeast attachment. After this incubation, the supernatants were aspirated, the wells washed twice with YNB-NP media, and fresh media with the same concentration of test compound added to the appropriate wells. The plate was incubated for 24 hr at 37° C. The next day, the cultures were aspirated and the wells washed once with YNB-NP media.
C. albicans biofilm quantification was carried out in 96 well plates using a semi-quantitative Tetrazolium salt, 2,3-bis-(2-methoxy-4-nitro-5-sulfophenyl)-2H tetrazolium-5-carboxanilide inner salt (XTT) reduction assay (Hawser, Tunney et al, Antimicrob Agents Chemother. 2004 May; 48(5):1879-81). XTT (0.01 g) was dissolved in sterile water (20 ml) and filter sterilized. 10 μl of Menadione dissolved in Acetone was added to the XTT solution, just before use. The XTT-Menadione Solution (100 μl) was added to each well. The plate was incubated in the dark at 37° C. for up to 2 hr to allow for colour development. The OD492 nm was recorded for each well. Experiments were repeated at least three times, with at least eight technical replicates.
Experiments were first carried out using the test compound at concentration of 100 μM.

[2] = tested on: pqsA-lacZ promoter fusion; assay: Promoter fusion based expression analysis (pqsA-lacZ, Miller units); type: cell-based, P. aeruginosa; conditions: PAO1 pqsA-pqsA-lacZ strain, 100 μM, overnight; methanol control 12287
Procedure: (§1) P. aeruginosa strains, PAO1 and pqsA mutant, containing the chromosomally inserted pqsA-lacZ promoter fusion on plasmid pUC18-mini-Tn7, were sub-cultured from glycerol stocks onto LB agar plates, supplemented with Carbenicillin (200 μg/ml) and X-gal (40 μg/ml), and incubated at 37° C. overnight. Single colonies were inoculated into LB broth (20 ml), supplemented with Carbenicillin (200 μg/ml), and incubated at 37° C., shaking at 180 rpm overnight. For subsequent experiments, the OD600 nm was recorded and a starting OD600 nm of 0.02 was inoculated into fresh LB broth, supplemented with Carbenicillin (200 μg/ml) and incubated at 37° C., shaking at 180 rpm.
Promoter fusion analyses were performed in a 96-well format. Briefly, overnight cultures of wild-type PAO1 pqsA-lacZ (pLP0996) and mutant strain PAO1 pqsA^− pqsA-LacZ were diluted to OD600 nm=0.02 in LB. Test compounds at 100 μM final concentration were added, mixed, aliquoted into 96 well plates and incubated overnight at 37° C. with shaking. The next day, OD600 nm values were recorded in a plate reader. Aliquots of cells (0.02 ml) were permeabilised [100 mM dibasic sodium phosphate (Na2HPO4), 20 mM KCl, 2 mM MgSO4, 0.8 mg/mL CTAB (hexadecyltrimethylammonium bromide), 0.4 mg/mL sodium deoxycholate, 5.4 μL/mL beta-mercaptoethanol] and added to substrate solution [60 mM Na2HPO4, 40 mM NaH2PO4, 1 mg/mL o-nitrophenyl-β-D-Galactoside (ONPG), 2.7 μL/mL β-mercaptoethanol]. The kinetics of colour development was monitored and the reactions were stopped using 1M NaCO3. OD420 nm were recorded as above. Miller units were calculated using the following equation; 1000×[OD420 nm/(OD600 nm)×0.02 ml×reaction time (mins)].
(§2) The phenazine production levels and Miller units in the PAO1 pqsA-pqsA-lacZ strain are detailed in table 5.
(§3) The virulence of compounds B2, C13 and C15 towards P. aeruginosa was assessed using an analogous method.

[3] = tested on: P. aeruginosa PAO1 pqsA-pqsA-lacZ strain; assay: Phenazine extraction (phenazine production); type: cell-based; conditions: PAO1 pqsA-pqsA-lacZ strain, test compounds 10 μM, 24 hr; methanol control 0.080
Procedure: as §1
P. aeruginosa strains were cultured as described above for 24 hr, with the addition of test compounds (10 μM). Cultures were centrifuged at 4000 rpm for 10 minutes and the cell free supernatant (5 ml) removed. Chloroform (3 ml) was added, and mixed by vortex. After centrifugation at 4000 rpm for 5 mins, the lower aqueous phase was transferred to 0.2 M HCl (2 ml). Samples were mixed by vortex and centrifuged at 4000 rpm for 5 mins to separate the phases. An aliquot of the top phase (1 ml) was removed and spectrophotmetrically analysed at OD570 nm. Phenazine production was calculated using the following formula: OD570 nm×2×17.072 and the units expressed in μg/ml.
as §2, §3

[4] = tested on: IB3 lung epithelial cells; assay: LDH release cytotoxicity, IB3-1 cells; type: cell-based; conditions: 100 μM, 16 hr, percentage of 0.1% Triton (100% cytotoxicity), MeOH 3.844
Procedure: Lactate dehydrogenase (LDH) release from IB3 lung epithelial cells was assayed as a measure of cytotoxicity using an LDH colorimetric kit (Roche) according to manufacturers' instructions. Briefly, IB3-1 cells were seeded onto 96 well plates and treated with methanol (control) and test compounds (100 μM). Following 16 hr incubation at 37° C. and 5% CO2, supernatants were removed and added to catalyst reaction mixture in a fresh plate and further incubated at 37° C. and 5% CO2 for 30 mins to allow for colour development. After this period, the plate was analysed on an ELISA plate reader at OD490 nm. Cytotoxicity was expressed as a percentage of cells treated with 0.1% (v/v) Triton (100% cytotoxicity).

| Structure (SMILES) | XTT result, Mean (MeOH control = 1) ([1]; 10 μM) | XTT result, Mean (MeOH control = 1) ([1]; 50 μM) | XTT result, Mean (MeOH control = 1) ([1]; 100 μM) | Absorbance at 492 nm, Mean (XTT) [1] | effectiveness against fungal biofilms formed by Candida albicans (in words) [1] | Miller Units, Mean [2] [Miller Units] | Phenazine, Mean [3] [µg/mL] | % Cytotoxicity, Mean (LDH release) [4] [%] |
| --- | --- | --- | --- | --- | --- | --- | --- | --- |
| CCCCCCCc1nc2ccccc2c(=O)n1N [Compound C2] | 0.68 | 0.38 | 0.25 | 0.178 | effective | 16027 | 0.541 | 28.94 |
| CCCCCCCc1cc(=O)c2cc(Cl)ccc2[nH]1 [Compound C4] | 0.86 | 0.67 | 0.58 | 0.302 | effective | 35489 | 0 | 15.46 |
| CCCCCCCc1cc(=O)c2cccc(Cl)c2[nH]1 [Compound C5] | – | – | – | 0.242 | effective | 11940 | 0 | 31.04 |
